# Laboratory results taken from patent publication US5962466A, “Reduction of hair growth using inhibitors of matrix metalloproteinases” (priority 1998, dated 1999).
# Read-outs that look alike come from different tables or passages of the source.
# Key:
# [1] = target: T1, MMP-2 (72 kD collagenase) (Mesocricetus auratus, UniProt A0A1U7R1N2); test: Zymographic assay of MMP-2 in flank organ hair follicle homogenates; assay type: biochemical, hamster; details: read-out: Percent Inhibition of Flank Organ MMP-2 Collagenase Activity
# T1 construct: Flank organ hair follicles were removed from untreated hamsters and homogenized in a buffer; from tissue; host or cells: hamster flank organ hair follicle homogenate
# T1 sequence (A0A1U7R1N2 30-662): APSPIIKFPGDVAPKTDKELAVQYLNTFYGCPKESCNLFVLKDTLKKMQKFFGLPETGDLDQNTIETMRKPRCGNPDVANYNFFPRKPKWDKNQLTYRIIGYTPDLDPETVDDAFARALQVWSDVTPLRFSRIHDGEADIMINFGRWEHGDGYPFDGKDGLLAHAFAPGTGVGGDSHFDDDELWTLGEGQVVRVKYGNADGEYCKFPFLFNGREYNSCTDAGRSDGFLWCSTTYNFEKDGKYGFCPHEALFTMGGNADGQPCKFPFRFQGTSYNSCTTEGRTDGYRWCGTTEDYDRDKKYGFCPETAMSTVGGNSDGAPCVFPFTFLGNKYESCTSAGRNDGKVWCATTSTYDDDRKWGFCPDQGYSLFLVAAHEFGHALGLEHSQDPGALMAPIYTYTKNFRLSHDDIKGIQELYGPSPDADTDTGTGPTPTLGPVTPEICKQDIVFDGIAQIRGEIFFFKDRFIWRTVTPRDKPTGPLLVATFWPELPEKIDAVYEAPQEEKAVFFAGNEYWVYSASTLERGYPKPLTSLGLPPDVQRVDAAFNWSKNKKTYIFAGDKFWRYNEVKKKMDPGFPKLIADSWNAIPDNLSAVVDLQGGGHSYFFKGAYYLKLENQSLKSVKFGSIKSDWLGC
# Description: (§1) The matrix metalloproteinases MMP-2 (72 kD collagenase) and MMP-9 (92 kD collagenase) were assayed in flank organ hair follicle homogenates using a zymographic assay. Zymography is an electrophoretic technique used to identify proteolytic activity in enzymes separated in polyacrylamide gels under nondenaturing conditions (Kleiner and Stetler-Stevenson, Analytical Biochemistry 218: 325-329, 1994). Flank organ hair follicles were removed from untreated hamsters and homogenized in a buffer containing 25 mM Tris, pH 7.5, and 50 mM sucrose. Samples of the homogenate were added to an equal volume of zymogram sample buffer containing 63 mM Tris-HCl, pH 6.8, 10% glycerol, 2% SDS, and 0.0025% bromophenol blue. (Note: all buffers and acrylamide gels were obtained from Novex, San Diego, Calif.). The samples were incubated for 10 minutes at room temperature and then loaded onto a precast 10% Tris-Glycine gel with 0.1% gelatin incorporated throughout the gel. The gel was electrophoresed at 125 constant volts for about 90 minutes. The gel was incubated for 30 minutes in renaturing buffer consisting of 2.5% triton X-100 followed by incubation in developing buffer which contained 10 mM Tris-base, 40 mM Tris-HCl, 200 mM NaCl, 5 mM CaCl2, and 0.02% Brij 35. The developing buffer was decanted after 30 minutes and replaced with fresh buffer for incubation overnight.
# (§2) For inhibition experiments, the inhibitor was included in the renaturing and development buffer steps. The gel was stained with Coomassie blue 0.25% for 1 hour and then destained overnight. Transparent bands were visualized against a blue background. MMP-2 and MMP-9 standards were supplied by Oncologix (Gaithersburg, Md.). The relative degree of digestion, representing collagenase activity, was quantitated by scanning photographs of the gels using Adobe Photoshop (Adobe Systems Inc., Mountain View, Calif.) and IPLab Gel (Signal Analytics, Vienna, Va.) software. The images were digitally inverted so that the integrations of bands would be reported as positive values. This method of analysis was standardized with respect to protein concentration.
# flank organ hair growth = test: Golden Syrian hamster assay (flank organ hair mass); assay type: in vivo; details: topical, 13 applications
# Text: Male intact Golden Syrian hamsters are considered acceptable models for human beard hair growth in that they display oval shaped flank organs, one on each side, each about 8 mm. in major diameter, which grow thick black and coarse hair similar to human beard hair. These organs produce hair in response to androgens in the hamster. To evaluate the effectiveness of a composition including an inhibitor of an MMP, the flank organs of each of a group of hamsters are depilated by applying a thioglycolate based chemical depilatory (Surgex). To one organ of each animal 10 μl. of vehicle alone once a day is applied, while to the other organ of each animal an equal amount of vehicle containing an inhibitor of a matrix metalloproteinase is applied. After thirteen applications (one application per day for five days a week), the flank organs are shaved and the amount of recovered hair (hair mass) from each is weighed. Percent-reduction of hair growth is calculated by subtracting the hair mass (mg) value of the test compound treated side from the hair mass value of the vehicle treated side; the delta value obtained is then divided by the hair mass value of the vehicle treated side, and the resultant number is multiplied by 100.
# The above-described assay will be referred to herein as the "Golden Syrian hamster" assay.
# [2] = target: T2, MMP-9 (92 kD collagenase) (Mesocricetus auratus, UniProt A0A1U7R3J7); test: Zymographic assay of MMP-9 in flank organ hair follicle homogenates; assay type: biochemical, hamster; details: read-out: Percent Inhibition of Flank Organ MMP-9 Collagenase Activity
# T2 construct: Flank organ hair follicles were removed from untreated hamsters and homogenized in a buffer; from tissue; host or cells: hamster flank organ hair follicle homogenate
# T2 sequence (A0A1U7R3J7 20-718): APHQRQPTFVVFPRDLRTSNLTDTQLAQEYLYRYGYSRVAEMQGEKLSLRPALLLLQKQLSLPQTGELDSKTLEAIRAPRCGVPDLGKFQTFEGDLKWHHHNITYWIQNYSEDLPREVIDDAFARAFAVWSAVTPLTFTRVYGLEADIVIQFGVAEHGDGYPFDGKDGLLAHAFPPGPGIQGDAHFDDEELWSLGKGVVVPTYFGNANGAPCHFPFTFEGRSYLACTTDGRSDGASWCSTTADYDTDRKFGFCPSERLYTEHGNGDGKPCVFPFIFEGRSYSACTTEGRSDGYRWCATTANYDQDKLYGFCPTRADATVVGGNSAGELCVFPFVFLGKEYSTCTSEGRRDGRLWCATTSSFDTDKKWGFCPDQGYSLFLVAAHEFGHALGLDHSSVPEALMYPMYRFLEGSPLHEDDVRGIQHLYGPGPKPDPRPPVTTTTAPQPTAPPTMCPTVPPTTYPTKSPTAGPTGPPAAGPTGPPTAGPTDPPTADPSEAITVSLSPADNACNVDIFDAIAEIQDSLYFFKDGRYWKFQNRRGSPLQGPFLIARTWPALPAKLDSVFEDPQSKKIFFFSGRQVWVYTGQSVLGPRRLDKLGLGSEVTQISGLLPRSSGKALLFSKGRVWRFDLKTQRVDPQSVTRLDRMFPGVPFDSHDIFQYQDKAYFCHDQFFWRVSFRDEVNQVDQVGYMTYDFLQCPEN
# Description: as §1, §2
SMILES,inhibition at 1000 µM ([1]; concentration 1 mM) [%],inhibition at 1000 µM ([2]; concentration 1 mM) [%],inhibition at 100 µM [1] [%],inhibition at 500 µM [1] [%],inhibition at 100 µM ([2]; concentration 0.1 mM) [%],inhibition at 500 µM ([2]; concentration 0.5 mM) [%],"% Reduction of hair mass (flank organ hair growth; dose 10%, Vehicle A, pH 4.0) [%]","Hair Mass (mg) Treated (flank organ hair growth; dose 10%, Vehicle A, pH 4.0)",also measured
"c1cnc2c(c1)ccc1cccnc12 [1,10-Phenanthroline, 1,10-phenanthroline]",,,100,100,100,100,,,"% Reduction of hair mass (flank organ hair growth; dose 5%, Vehicle A, pH 7.0): 45 ± 9%; Hair Mass (mg) Treated (flank organ hair growth; dose 5%, Vehicle A, pH 7.0): 1.40 ± .24 mg"
"C[C@H]1c2cccc(O)c2C(O)=C2C(=O)[C@]3(O)C(O)=C(C(N)=O)C(=O)[C@@H](N(C)C)[C@@H]3[C@@H](O)[C@@H]21 [Doxycycline, α-6-deoxy-5-hydroxytetracycline]",,,,,28,100,,,"inhibition at 100 µM ([1]; concentration 0.1 mM): 89%; inhibition at 500 µM ([1]; concentration 0.5 mM): 100%; % Reduction of hair mass (flank organ hair growth; dose 10%, Vehicle A, pH 5.5): 27 ± 9%; Hair Mass (mg) Treated (flank organ hair growth; dose 10%, Vehicle A, pH 5.5): 1.73 ± .22 mg"
"O=Cc1ccc(O)c(O)c1 [Protocatechuic aldehyde, 3,4-dihydroxybenzaldehyde]",,,,,,,,,"% Reduction of hair mass (flank organ hair growth; dose 10%, Vehicle A, pH 3.5): 32 ± 9%; Hair Mass (mg) Treated (flank organ hair growth; dose 10%, Vehicle A, pH 3.5): 0.92 ± .13 mg"
"CN(C)C1C(O)=C(C(N)=O)C(=O)C2(O)C(O)=C3C(=O)c4c(O)cccc4C(C)(O)C3CC12 (stereo not drawn) [Tetracycline, 4-(dimethylamino)-1,4,4a,5,5a,6,11,12a-octahydro-3,6,10,12,12a-pentahydroxy-6-methyl-1,11-dioxo-2-naphthacenecarboxamide]",,,31,64,,,,,"inhibition at 1000 µM [1]: 100%; % Reduction of hair mass (flank organ hair growth; dose 10%, Vehicle B, pH 4.5): 56 ± 9%; Hair Mass (mg) Treated (flank organ hair growth; dose 10%, Vehicle B, pH 4.5): 0.67 ± .10 mg; inhibition at 100 µM [2]: 49%; inhibition at 500 µM [2]: 70%; inhibition at 1000 µM [2]: 100%"

# Further lines, with some results ahead:
inhibition at 1000 µM ([1]; concentration 1 mM) [%],inhibition at 1000 µM ([2]; concentration 1 mM) [%],SMILES,inhibition at 100 µM [1] [%],inhibition at 500 µM [1] [%],inhibition at 100 µM ([2]; concentration 0.1 mM) [%],inhibition at 500 µM ([2]; concentration 0.5 mM) [%],"% Reduction of hair mass (flank organ hair growth; dose 10%, Vehicle A, pH 4.0) [%]","Hair Mass (mg) Treated (flank organ hair growth; dose 10%, Vehicle A, pH 4.0)",also measured
100,100,"C=C1c2cccc(O)c2C(=O)C2=C(O)[C@]3(O)C(=O)C(C(N)=O)=C(O)[C@@H](N(C)C)[C@@H]3[C@@H](O)[C@H]12 [Methacycline, 6-methylene oxytetracycline]",,,,,57 ± 9,0.68 ± .11 mg,
100,100,"CN(C)c1ccc(O)c2c1C[C@H]1C[C@H]3[C@H](N(C)C)C(O)=C(C(N)=O)C(=O)[C@@]3(O)C(O)=C1C2=O [Minocycline, 7-dimethylamino-6-dimethyl-6-deoxytetracycline]",,,,,63 ± 6,0.82 ± .11 mg,
